Test results taken from patent publication US10052330B2, “Substituted pyrido[3,4-b]pyrazines as Syk inhibitors” (HUTCHISON MEDIPHARMA LIMITED, priority 2011, dated 2018).

What was measured:
RBL-2H3 cells = experiment: IgE-induced Beta-hexosaminidase secretion in RBL-2H3 cells; assay type: cell-based; conditions: Rattus norvegicus, RBL-2H3, RBL-2H3 cells sensitized with SPE-7, stimulated with DNP-BSA; upper bound of each range is 'less than'; read-out: IC50, IgE-induced Beta-hexosaminidase secretion
Syk kinase = Syk kinase (Homo sapiens, UniProt P43405); experiment: Syk kinase enzymatic assay (Kit-Tyr 2 Peptide); assay type: biochemical; conditions: 8 concentrations, 1 μM down to 0.0003 μM; upper bound of each range is 'less than'; read-out: IC50: Enzymatic Activity (Syk kinase)

Row | IC50 (Syk kinase) | Compound | IC50 (RBL-2H3 cells)
1 | 0.1 to 1 µM | Cc1cc(-c2cc3nccnc3c(NC[C@H]3CNCCO3)n2)ccc1N1CCOCC1 [Compound 115] | 0.001 to 0.1 µM
2 | 0.001 to 0.1 µM | c1cnc2c(NC[C@@H]3CCCNC3)nc(-c3ccc(N4CCCC4)cc3)cc2n1 [Compound 119] | 0.1 to 1 µM
3 | 0.001 to 0.1 µM | Cc1cc(-c2cc3nccnc3c(NC[C@@H]3CCCNC3)n2)ccc1N1CCOCC1 [Compound 120] | 0.1 to 1 µM
4 | 0.001 to 0.1 µM | Fc1cc(-c2cc3nccnc3c(NC[C@@H]3CCCNC3)n2)ccc1N1CCOCC1 [Compound 121] | 0.1 to 1 µM
5 | 0.001 to 0.1 µM | CN1CCN(c2ccc(-c3cc4nccnc4c(NC[C@@H]4CCCNC4)n3)cc2)CC1 [Compound 122] | 0.1 to 1 µM
6 | 0.001 to 0.1 µM | CN1CCN(c2ccc(-c3cc4nccnc4c(NC[C@@H]4CNCCO4)n3)cc2)CC1 [Compound 123] | 0.001 to 0.1 µM
7 | 0.1 to 1 µM | O=C1CCCN1c1ccc(-c2cc3nccnc3c(NC[C@@H]3CNCCO3)n2)cc1 [Compound 124] | 0.1 to 1 µM
8 | 0.001 to 0.1 µM | CN1CCN(c2ccc(-c3cc4nccnc4c(N4CC[C@@H](CO)C4)n3)cc2)CC1 [Compound 127] | 0.1 to 1 µM
9 | 0.001 to 0.1 µM | CN1CCN(c2ccc(-c3cc4nccnc4c(N4CCC(C(N)=O)C4)n3)cc2)CC1 (centres unmarked) [Compound 128] | 0.1 to 1 µM
10 | 0.001 to 0.1 µM | Fc1cc(-c2cc3nccnc3c(NC[C@H]3CCCNC3)n2)ccc1N1CCOCC1 [Compound 129] | 0.001 to 0.1 µM
11 | 0.001 to 0.1 µM | c1cnc2c(N3CCC4(CCCNC4)C3)nc(-c3ccc(N4CCOCC4)nc3)cc2n1 (centres unmarked) [Compound 130] | 0.001 to 0.1 µM
12 | 0.1 to 1 µM | Fc1cc(-c2cc3nccnc3c(NC[C@@H]3CNCCO3)n2)cc(F)c1N1CCOCC1 [Compound 135] | 0.1 to 1 µM
13 | 0.001 to 0.1 µM | COc1ccc(-c2cc3nccnc3c(NC[C@@H]3CNCCO3)n2)cc1F [Compound 136] | 0.001 to 0.1 µM
14 | 0.1 to 1 µM | FC(F)Oc1ccc(-c2cc3nccnc3c(NC[C@@H]3CNCCO3)n2)cc1 [Compound 138] | 0.1 to 1 µM
15 | 0.001 to 0.1 µM | FC(F)Oc1ccc(-c2cc3nccnc3c(NC[C@H]3CCCNC3)n2)cc1 [Compound 139] | 0.001 to 0.1 µM
16 | 0.001 to 0.1 µM | CN(C)c1ccc(-c2cc3nccnc3c(NC[C@@H]3CNCCO3)n2)cc1F [Compound 141] | 0.001 to 0.1 µM
17 | 0.001 to 0.1 µM | CN(C)c1ccc(-c2cc3nccnc3c(NC[C@H]3CCCNC3)n2)cc1F [Compound 142] | 0.001 to 0.1 µM
18 | 0.001 to 0.1 µM | CNc1ccc(-c2cc3nccnc3c(NC[C@@H]3CNCCO3)n2)cc1 [Compound 143] | 0.001 to 0.1 µM
19 | 0.1 to 1 µM | NC(=O)N[C@@H]1CCN(c2nc(-c3ccc(N4CCOCC4)cc3)cc3nccnc23)C1 [Compound 144] | 0.1 to 1 µM
20 | 0.1 to 1 µM | CCNC[C@@H]1CCN(c2nc(-c3ccc(N4CCOCC4)cc3)cc3nccnc23)C1 [Compound 148] | 0.1 to 1 µM
21 | 0.1 to 1 µM | CS(=O)(=O)NC[C@@H]1CCN(c2nc(-c3ccc(N4CCOCC4)cc3)cc3nccnc23)C1 [Compound 149, (R)—N-((1-(7-(4-morpholinophenyl)pyrido[4,3-b]pyrazin-5-yl)pyrrolidin-3-yl)methyl)methanesulfonamide] | 0.1 to 1 µM
22 | 0.1 to 1 µM | NC(=O)NC[C@@H]1CCN(c2nc(-c3ccc(N4CCOCC4)cc3)cc3nccnc23)C1 [Compound 150, (S)-1-((1-(7-(4-morpholinophenyl)pyrido[4,3-b]pyrazin-5-yl)pyrrolidin-3-yl)methyl)urea] | 0.1 to 1 µM

Row | IC50 (Syk kinase) | Compound | IC50 (RBL-2H3 cells)
23 | 0.1 to 1 µM | NC(=O)NC[C@H]1CCN(c2nc(-c3ccc(N4CCOCC4)cc3)cc3nccnc23)C1 [Compound 151] | 0.1 to 1 µM
24 | 0.001 to 0.1 µM | FC1=CC(CNc2nc(-c3ccc(N4CCOCC4)cc3)cc3nccnc23)CNC1 (centres unmarked) [Compound 157] | 0.001 to 0.1 µM
25 | 0.1 to 1 µM | c1cnc2c(NCc3cc[nH]n3)nc(-c3ccc(N4CCOCC4)cc3)cc2n1 [Compound 162] | 0.1 to 1 µM
26 | 0.1 to 1 µM | CN(C)c1ccc(-c2cc3nccnc3c(N3CC[C@H](CO)C3)n2)cc1 [Compound 164] | 0.1 to 1 µM
27 | 0.1 to 1 µM | CN(C)c1ccc(-c2cc3nccnc3c(N3CC[C@@H](CO)C3)n2)cc1 [Compound 165] | 0.001 to 0.1 µM
28 | 0.1 to 1 µM | CN(C)c1ccc(-c2cc3nccnc3c(NCCS(N)(=O)=O)n2)cc1 [Compound 166] | 0.1 to 1 µM
29 | 0.1 to 1 µM | NS(=O)(=O)CCNc1nc(-c2ccc(N3CCOCC3)cc2)cc2nccnc12 [Compound 167] | 0.1 to 1 µM
30 | 0.1 to 1 µM | O=C1CCC(CNc2nc(-c3ccc(N4CCOCC4)cc3)cc3nccnc23)CN1 (centres unmarked) [Compound 168] | 0.1 to 1 µM
31 | 0.1 to 1 µM | c1cnc2c(NCCc3c[nH]cn3)nc(-c3ccc(N4CCOCC4)cc3)cc2n1 [Compound 172] | 0.1 to 1 µM
32 | 0.1 to 1 µM | CC(O)[C@H]1CCN(c2nc(-c3ccc(N4CCOCC4)cc3)cc3nccnc23)C1 (stereo partly drawn) [Compound 174, (S)-1-(1-(7-(4-morpholinophenyl)pyrido[4,3-b]pyrazin-5-yl)pyrrolidin-3-yl)ethanol] | 0.1 to 1 µM
33 | 0.1 to 1 µM | CN(C)c1ccc(-c2cc3nccnc3c(NCCC(N)=O)n2)cc1 [Compound 175, 3-(7-(4-(dimethylamino)phenyl)pyrido[4,3-b]pyrazin-5-ylamino)propanamide] | 0.1 to 1 µM
34 | 0.1 to 1 µM | COc1ccc(-c2cc3nccnc3c(NCCC(N)=O)n2)cc1F [Compound 176] | 0.1 to 1 µM
35 | 0.1 to 1 µM | NC(=O)CCNc1nc(-c2ccc(N3CCCC3)cc2)cc2nccnc12 [Compound 177] | 0.001 to 0.1 µM
36 | 0.001 to 0.1 µM | NC(=O)C1CCN(c2nc(-c3ccc(N4CCOCC4)cc3)cc3nccnc23)C1 (centres unmarked) [Compound 179] | 0.1 to 1 µM
37 | 0.001 to 0.1 µM | CN1CCN(c2ccc(-c3cc4nccnc4c(NCCCN)n3)cc2)CC1 [Compound 186] | 0.1 to 1 µM
38 | 0.1 to 1 µM | NCCCNc1nc(-c2ccc(N3CCOCC3)nc2)cc2nccnc12 [Compound 194] | 0.1 to 1 µM
39 | 0.001 to 0.1 µM | FC1(F)CCNCC1CNc1nc(-c2ccc(N3CCOCC3)c(Cl)c2)cc2nccnc12 (centres unmarked) [Compound 205] | 0.001 to 0.1 µM
40 | 0.001 to 0.1 µM | CC1CN(c2ccc(-c3cc4nccnc4c(NC[C@@H]4CNCCO4)n3)cc2)CCO1 (some centres unmarked) [Compound 208] | 0.001 to 0.1 µM
41 | 0.001 to 0.1 µM | CCN1CCN(c2ccc(-c3cc4nccnc4c(NCC4CNCCO4)n3)cc2)CC1 (centres unmarked) [Compound 215] | 0.001 to 0.1 µM
42 | 0.001 to 0.1 µM | OCCN1CCN(c2ccc(-c3cc4nccnc4c(NCC4CNCCO4)n3)cc2)CC1 (centres unmarked) [Compound 216] | 0.001 to 0.1 µM
43 | 0.001 to 0.1 µM | CC(C)(O)CN1CCN(c2ccc(-c3cc4nccnc4c(NCC4CNCCO4)n3)cc2)CC1 (centres unmarked) [Compound 217] | 0.001 to 0.1 µM
44 | 0.001 to 0.1 µM | c1cnc2c(NC[C@@H]3CNCCO3)nc(-c3ccc(N4CCCOCC4)cc3)cc2n1 [Compound 218] | 0.001 to 0.1 µM

Row | IC50 (Syk kinase) | Compound | IC50 (RBL-2H3 cells)
45 | 0.001 to 0.1 µM | Fc1cc(-c2cc3nccnc3c(NC[C@@H]3CNCCO3)n2)ccc1N1CCCOCC1 [Compound 219] | 0.001 to 0.1 µM
46 | 0.1 to 1 µM | c1cnc2c(NCC3CNCCCO3)nc(-c3ccc(N4CCOCC4)cc3)cc2n1 (centres unmarked) [Compound 220] | 0.1 to 1 µM
47 | 0.001 to 0.1 µM | Cc1cc(-c2cc3nccnc3c(NCC3CNCCCO3)n2)ccc1N1CCOCC1 (centres unmarked) [Compound 221] | 0.001 to 0.1 µM
48 | 0.1 to 1 µM | Fc1cc(-c2cc3nccnc3c(NCC3CNCCCO3)n2)ccc1N1CCOCC1 (centres unmarked) [Compound 222] | 0.1 to 1 µM
49 | 0.1 to 1 µM | Clc1cc(-c2cc3nccnc3c(NCC3CNCCCO3)n2)ccc1N1CCOCC1 (centres unmarked) [Compound 223] | 0.1 to 1 µM
50 | 0.001 to 0.1 µM | FC1(F)CCN(c2ccc(-c3cc4nccnc4c(NC[C@@H]4CNCCO4)n3)cc2)C1 [Compound 226] | 0.001 to 0.1 µM
51 | 0.001 to 0.1 µM | CN(c1ccc(-c2cc3nccnc3c(NCC3CNCCO3)n2)cc1)S(C)(=O)=O (centres unmarked) [Compound 228] | 0.1 to 1 µM
52 | 0.001 to 0.1 µM | FC1(F)CCN(c2ccc(-c3cc4nccnc4c(NC[C@@H]4CNCCO4)n3)cc2)CC1 [Compound 229] | 0.001 to 0.1 µM
53 | 0.001 to 0.1 µM | F[C@H]1CCN(c2ccc(-c3cc4nccnc4c(NCC4CNCCO4)n3)cc2)C1 (some centres unmarked) [Compound 231] | 0.001 to 0.1 µM
54 | 0.1 to 1 µM | Cn1ccc2cc(-c3cc4nccnc4c(NC[C@@H]4CNCCO4)n3)cnc21 [Compound 234] | 0.1 to 1 µM
55 | 0.001 to 0.1 µM | Cn1ccc2cc(-c3cc4nccnc4c(NC[C@@H]4CNCCO4)n3)ccc21 [Compound 235] | 0.001 to 0.1 µM
56 | 0.001 to 0.1 µM | CN1CCN(c2ccc(-c3cc4nccnc4c(NC[C@H]4CCCNC4)n3)cc2F)CC1 [Compound 237] | 0.001 to 0.1 µM
57 | 0.001 to 0.1 µM | CCN1CCN(c2ccc(-c3cc4nccnc4c(NC[C@H]4CCCNC4)n3)cc2F)CC1 [Compound 238] | 0.1 to 1 µM
58 | 0.001 to 0.1 µM | Fc1cc(-c2cc3nccnc3c(NCC3CNCCS3)n2)ccc1N1CCOCC1 (centres unmarked) [Compound 240] | 0.001 to 0.1 µM
59 | 0.001 to 0.1 µM | CN1CCN(c2ccc(-c3cc4nccnc4c(NCC4CNCCS4)n3)cc2)CC1 (centres unmarked) [Compound 241] | 0.1 to 1 µM
60 | 0.1 to 1 µM | C[C@@H]1CN(c2ccc(-c3cc4nccnc4c(NC[C@@H]4CNCCO4)n3)cc2F)C[C@H](C)O1 [Compound 247] | 0.001 to 0.1 µM
61 | 0.001 to 0.1 µM | FC1(CNc2nc(-c3ccc(N4CCOCC4)cc3)cc3nccnc23)CCCNC1 (centres unmarked) [Compound 251] | 0.001 to 0.1 µM
62 | 0.001 to 0.1 µM | CN1CCN(c2ccc(-c3cc4nccnc4c(NCC4(F)CCCNC4)n3)cc2)CC1 (centres unmarked) [Compound 253] | 0.1 to 1 µM
63 | 0.001 to 0.1 µM | Fc1cc(-c2cc3nccnc3c(NCC3(F)CCCNC3)n2)ccc1N1CCOCC1 (centres unmarked) [Compound 254] | 0.001 to 0.1 µM
64 | 0.1 to 1 µM | COc1ccc(-c2cc3nccnc3c(NCC3(F)CCCNC3)n2)cc1F (centres unmarked) [Compound 255] | 0.001 to 0.1 µM
